{"source": "patent US12448377B2", "about": "“Heterocyclic compound” (Takeda Pharmaceutical Company Limited, priority 2019, dated 2025)"}
{"biological_target": "T1, human orexin type 2 receptor (Homo sapiens, UniProt O43614)", "T1 construct": "expressed in transfected cells", "T1 sequence (O43614 1-444)": "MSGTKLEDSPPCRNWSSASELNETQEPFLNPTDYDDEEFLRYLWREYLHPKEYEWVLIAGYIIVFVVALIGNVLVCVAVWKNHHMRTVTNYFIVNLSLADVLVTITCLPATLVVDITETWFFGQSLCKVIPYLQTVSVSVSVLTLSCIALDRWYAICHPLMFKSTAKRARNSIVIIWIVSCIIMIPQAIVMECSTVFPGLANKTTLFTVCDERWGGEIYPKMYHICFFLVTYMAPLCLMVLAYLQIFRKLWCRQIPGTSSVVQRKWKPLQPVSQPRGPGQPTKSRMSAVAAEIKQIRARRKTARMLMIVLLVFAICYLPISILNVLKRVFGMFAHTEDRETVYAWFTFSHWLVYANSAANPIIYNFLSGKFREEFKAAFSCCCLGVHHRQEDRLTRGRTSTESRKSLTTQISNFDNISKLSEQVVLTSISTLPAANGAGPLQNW", "assay": "Measurement of orexin type 2 receptor agonist activity (calcium fluorescence, CHO cells forcibly expressing human OX2 receptor)", "type": "cell-based", "conditions": "compound at 3 μM, DMSO = 0%, orexin A (human) 10 nM = 100%", "source_text": "To obtain a cell clone stably expressing human orexin type 2 receptor, human orexin type 2 receptor cDNA was inserted into pcDNA3.1(+) plasmid vector (Invitrogen), and a plasmid DNA for expression of human orexin type 2 receptor (pcDNA3.1(+)/hOX2R) was cloned. The plasmid DNA was introduced into CHO-K1 cell by an electroporation method, and human orexin type 2 receptor-expressing clonal cells were obtained by limiting dilution method using G418 drug resistance as a selection marker.\nCHO cells forcibly expressing human OX2 receptor were seeded in each well of 384 well black transparent bottom plate (BD Falcon) at 10,000 cells/well, and cultured for one day in a 5% CO2 incubator at 37° C. After removal of the medium in the cell plate, assay buffer A containing a calcium indicator (HBSS (Thermo Fisher Scientific), 20 mM HEPES (Thermo Fisher Scientific), 0.1% BSA (Sigma-Aldrich), 2.5 μg/mL Fluo-4 AM (DOJINDO Chemical), 0.08% Pluronic F127 (DOJINDO Chemical), 1.25 mM probenecid (DOJINDO Chemical)) was added thereto at 30 μL/well. The plate was stood for 30 min in a 5% CO2 incubator at 37° C., and further stood at room temperature for 30 min. A test compound prepared by diluting with assay buffer B (HBSS, 20 mM HEPES, 0.1% BSA) was added thereto at 10 μL/well, and the fluorescence value was measured by FDSSμCELL (Hamamatsu Photonics K.K.) every one sec for 1 min, and thereafter every two sec for 1 min 40 sec. The activity (%) of the test compound was calculated assuming that variation in the fluorescence value when DMSO was added instead of the test compound was 0%, and variation in the fluorescence value when orexin A (human) (PEPTIDE INSTITUTE, INC.) was added at the final concentration of 10 nM was 100%.", "units": {"OX2R agonist activity (3 μM, %)": "%"}}
{"smiles": "Cc1ccc2n(c1=O)C(COC1CCC(C(C)C)CC1)C(NS(=O)(=O)N(C)C)CC2", "note": "(racemic) [Example 28, rac-N,N-dimethyl-N′-[(3S,4R)-7-methyl-6-oxo-4-({[(1s,4S)-4-(propan-2-yl)cyclohexyl]oxy}methyl)-1,3,4,6-tetrahydro-2H-quinolizin-3-yl]sulfuric diamide]", "OX2R agonist activity (3 μM, %)": 92}
{"smiles": "Cc1ccc2n(c1=O)C(COC1CCC(c3ccccc3)CC1)C(NS(=O)(=O)N(C)C)CC2", "note": "(racemic) [Example 29, rac-N,N-dimethyl-N′-[(3S,4R)-7-methyl-6-oxo-4-({[(1s,4S)-4-phenylcyclohexyl]oxy}methyl)-1,3,4,6-tetrahydro-2H-quinolizin-3-yl]sulfuric diamide]", "OX2R agonist activity (3 μM, %)": 83}
{"smiles": "Cc1ccc2n(c1=O)C(COC1CCC(C(C)(C)C)CC1)C(NS(=O)(=O)N(C)C)CC2", "note": "(racemic) [Example 30, rac-N′-[(3S,4R)-4-({[(1s,4S)-4-tert-butylcyclohexyl]oxy}methyl)-7-methyl-6-oxo-1,3,4,6-tetrahydro-2H-quinolizin-3-yl]-N,N-dimethylsulfuric diamide]", "OX2R agonist activity (3 μM, %)": 94}
{"smiles": "Cc1ccccc1C1CCC(OCC2C(NS(=O)(=O)N(C)C)CCc3ccc(C)c(=O)n32)CC1", "note": "(racemic) [Example 31, rac-N,N-dimethyl-N′-[(3S,4R)-7-methyl-4-({[(1s,4S)-4-(2-methylphenyl)cyclohexyl]oxy}methyl)-6-oxo-1,3,4,6-tetrahydro-2H-quinolizin-3-yl]sulfuric diamide]", "OX2R agonist activity (3 μM, %)": 89}
{"smiles": "Cc1cccc(C2CCC(OCC3C(NS(=O)(=O)N(C)C)CCc4ccc(C)c(=O)n43)CC2)c1", "note": "(racemic) [Example 32, rac-N,N-dimethyl-N′-[(3S,4R)-7-methyl-4-({[(1s,4S)-4-(3-methylphenyl)cyclohexyl]oxy}methyl)-6-oxo-1,3,4,6-tetrahydro-2H-quinolizin-3-yl]sulfuric diamide]", "OX2R agonist activity (3 μM, %)": 81}
{"smiles": "Cc1ccc(C2CCC(OCC3C(NS(C)(=O)=O)CCc4ccc(C)c(=O)n43)CC2)cc1", "note": "(racemic) [Example 33, rac-N-[(3S,4R)-7-methyl-4-({[(1s,4S)-4-(4-methylphenyl)cyclohexyl]oxy}methyl)-6-oxo-1,3,4,6-tetrahydro-2H-quinolizin-3-yl]methanesulfonamide]", "OX2R agonist activity (3 μM, %)": 78}
{"smiles": "CCS(=O)(=O)NC1CCc2ccc(C)c(=O)n2C1COC1CCC(c2ccc(C)cc2)CC1", "note": "(racemic) [Example 34, rac-N-[(3S,4R)-7-methyl-4-({[(1s,4S)-4-(4-methylphenyl)cyclohexyl]oxy}methyl)-6-oxo-1,3,4,6-tetrahydro-2H-quinolizin-3-yl]ethanesulfonamide]", "OX2R agonist activity (3 μM, %)": 78}
{"smiles": "Cc1ccc(C2CCC(OCC3C(NS(=O)(=O)N(C)C)CCc4ccc(C)c(=O)n43)CC2)cc1", "note": "(racemic) [Example 35, rac-N,N-dimethyl-N′-[(3S,4R)-7-methyl-4-({[(1s,4S)-4-(4-methylphenyl)cyclohexyl]oxy}methyl)-6-oxo-1,3,4,6-tetrahydro-2H-quinolizin-3-yl]sulfuric diamide]", "OX2R agonist activity (3 μM, %)": 88}
{"smiles": "Cc1ccc(C2CCC(OCC3C(NS(=O)(=O)C4CC4)CCc4ccc(C)c(=O)n43)CC2)cc1", "note": "(racemic) [Example 36, rac-N-[(3S,4R)-7-methyl-4-({[(1s,4S)-4-(4-methylphenyl)cyclohexyl]oxy}methyl)-6-oxo-1,3,4,6-tetrahydro-2H-quinolizin-3-yl]cyclopropanesulfonamide]", "OX2R agonist activity (3 μM, %)": 84}
{"smiles": "Cc1ccc2n(c1=O)C(COC1CCC(C(F)(F)F)CC1)C(NS(C)(=O)=O)CC2", "note": "(racemic) [Example 37, rac-N-[(3S,4R)-7-methyl-6-oxo-4-({[(1s,4S)-4-(trifluoromethyl)cyclohexyl]oxy}methyl)-1,3,4,6-tetrahydro-2H-quinolizin-3-yl]methanesulfonamide]", "OX2R agonist activity (3 μM, %)": 94}
